In brackets after ≈: the same amount, converted by molar mass. Read-outs that look alike come from different tables or passages of the source.

Data set [1] deals with T1, rat liver microsomal glucose-6-phosphate translocase (Rattus norvegicus, UniProt F7EWB7).
T1 construct: rat liver microsomal glucose-6-phosphate translocase; from tissue; host or cells: rat liver microsomes (untreated and Triton X-100 disrupted)
T1 sequence (F7EWB7 1-429): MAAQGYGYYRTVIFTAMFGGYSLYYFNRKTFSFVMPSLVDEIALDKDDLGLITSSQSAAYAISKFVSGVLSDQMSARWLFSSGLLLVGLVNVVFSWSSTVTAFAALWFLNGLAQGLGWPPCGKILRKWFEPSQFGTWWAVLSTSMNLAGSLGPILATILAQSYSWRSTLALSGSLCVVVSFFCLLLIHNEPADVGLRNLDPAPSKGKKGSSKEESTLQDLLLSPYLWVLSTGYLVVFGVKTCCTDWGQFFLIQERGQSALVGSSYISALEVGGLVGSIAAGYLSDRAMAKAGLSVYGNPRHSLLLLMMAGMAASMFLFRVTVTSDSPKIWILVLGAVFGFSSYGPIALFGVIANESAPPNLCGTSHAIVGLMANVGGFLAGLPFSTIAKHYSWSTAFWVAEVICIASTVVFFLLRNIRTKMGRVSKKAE
Nature of the data set: inhibition of rat liver microsomal glucose-6-phosphate translocase (colorimetric assay, untreated and Triton X-100 disrupted microsomes). Format: biochemical. Here is the method: (§1) The fermentation is preferably carried out for 40 to 90 hours when an optimal yield of the compounds of the present invention are obtained. It is particularly preferred to carry out the fermentation for 45-70 hours under submerged conditions for example in shake flasks as well as in laboratory fermenters. If desired, antifoam agents like Desmophen® (Polypropylene oxide, Bayer A G, Leverkusen, Germany) may be used in the fermentation process. The progress of fermentation and formation of Kodaistatins A, B, C and D can be detected by measuring the […] in untreated and Triton X-100® disrupted rat liver microsomes in microliter plates at room temperature using a colorimetric assay as described in Methods in Enzymology, 174,58-67 (1989) with some modification and by HPLC In the resulting culture broth, kodaistatin B, C and D are present as minor compounds, and kodaistatins A as a major compound. Thus, the active crude material can be recovered by extraction of mycelium with water miscible solvents such as methanol, ethanol and acetone, and extraction of the culture filtrate with a water immiscible solvent such as ethyl acetate, dichioromethane, chloroform or butanol at pH 5-8 or by hydrophobic interaction chromatography using polymeric resins such as "Diaion HP-20®" (Mitsubishi Chemical Industries Limited, Japan), "Amberlite XAD®" (Rohm and Haas Industries U.S.A.) activated charcoal or ion exchange chromatography at pH 5-8. The preferred method is adsorption over "Diaion HP-20®" followed by desorption of the compound using eluants such as water, methanol, acetone or acetonitrile or combinations thereof. Concentration and lyophilization of the active eluates gives the crude compound.
Kodaistatins A, B, C and D inhibit potently the activity of rat liver microsomal glucose-6-phosphate translocase.
(Microsomes from liver hold many membrane-bound enzymes, among them those of drug oxidation.)

The next data set in a line: solubility. Format: physicochemical. The note with it: solvents in which soluble.
The target in a further data set is T2, phosphatase (Rattus norvegicus, UniProt P43428).
T2 construct: from tissue; host or cells: rat liver microsomes, detergent (Triton X-100) disrupted
T2 sequence (P43428 1-357): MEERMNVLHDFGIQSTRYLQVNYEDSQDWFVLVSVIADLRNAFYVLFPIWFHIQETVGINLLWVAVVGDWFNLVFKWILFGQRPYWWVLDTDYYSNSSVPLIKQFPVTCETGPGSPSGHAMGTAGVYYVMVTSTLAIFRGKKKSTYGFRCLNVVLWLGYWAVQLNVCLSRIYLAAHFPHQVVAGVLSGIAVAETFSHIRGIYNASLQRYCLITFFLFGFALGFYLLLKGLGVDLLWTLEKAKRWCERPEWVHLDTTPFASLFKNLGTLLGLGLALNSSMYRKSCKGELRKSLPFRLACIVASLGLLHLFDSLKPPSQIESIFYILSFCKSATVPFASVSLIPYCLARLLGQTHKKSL
Nature of the data set: inhibition of phosphatase activity in detergent-disrupted microsomes. It is filed as biochemical. The note with it: for IC50: detergent-disrupted microsomes. Here is the method: as §1

Data set [2] has as its system fructose-induced gluconeogenesis. Nature of the data set: glucose output of isolated rat hepatocytes, fructose-induced gluconeogenesis. It is filed as cell-based. The note with it: Hepatocyte, read-out: IC50, inhibition of fructose-induced gluconeogenesis. From the text: (§2) Kodaistatin A was further evaluated in isolated rat hepatocytes for its effect on glucose output.

Data set [3] deals with phosphate/pyrophosphate translocase. The data set is described as follows: effect on activity of phosphate/pyrophosphate translocase. It is filed as biochemical, rat.
For data set [4], the system named is glucagon-induced glycogenolysis. Nature of the data set: glucose output of isolated rat hepatocytes, glucagon-induced glycogenolysis. Format: cell-based. As to conditions: Hepatocyte, read-out: IC50, inhibition of glucagon-induced glycogenolysis.
Source text: as §2

The mark [5] stands for this setting: rat liver microsomes, read-out: approximate IC50, glucose-6-phosphate translocase (converted).

On to `CCC(C)C=C(C)C=CC(=O)CC1=C(c2cc(O)c(O)cc2C2=C(O)C(=Cc3ccc(O)c(O)c3)OC2=O)C(O)(C(C)=O)C(O)C1=O` (centres unmarked) [Kodaistatin C], for which the IC50 in data set [1] (setting [5]) was roughly 0.139 µM. In addition, the Solubility entry in “solubility” is “MeOH and DMSO”.
For `CCC(C)C=C(C)C=CC(=O)CC1=C(c2cc(O)c(O)cc2C2=C(O)C(=Cc3ccc(O)c(O)c3)OC2=O)C(O)(C(C)=O)C(O)C1=O` (centres unmarked) [Kodaistatin D], in data set [1] (setting [5]), the IC50 was roughly 0.773 µM. For the same compound, in “solubility”, the Solubility result is “MeOH and DMSO”.
In the case of `CCC(C)/C=C(C)/C=C/C(=O)CC1=C(c2cc(O)c(O)cc2C2=C(O)/C(=C/c3ccc(O)cc3)OC2=O)C(O)(C(C)=O)C(O)C1=O` (centres unmarked) [Kodaistatin A], the “mode of inhibition of glucose-6-phosphate translocase” value in data set [1] was “reversible and competitive inhibitor”. The IC50 was 0.317 µM in data set [1] (Example V, isolation and purification, read-out: IC50, glucose-6-phosphate translocase, material at stages of purification (converted)); roughly 0.3 µM in data set [1] (rat liver microsomes, molar value in parentheses, read-out: approximate IC50, glucose-6-phosphate translocase (converted)); roughly 0.317 µM in data set [1] (setting [5]); roughly 317 µM at phosphatase; roughly 300 µM at phosphatase (molar value in parentheses); roughly 25 mg/L (≈ 39.6 µM) in data set [2]. In addition, the half-maximal inhibitory concentration (IC50) in data set [4] was roughly 50 mg/L (≈ 79.3 µM). Further, in the data set “solubility”, the Solubility result is “MeOH, CH3 CN and DMSO”. On phosphatase (translocase vs phosphatase), the “specificity for translocase over phosphatase” value is recorded as “high degree of specificity for translocase”. In data set [3], the “effect on activity of phosphate/pyrophosphate translocase” value is “did not affect the activity”.
With `CCC(C)C=C(C)C=CC(=O)CC1=C(c2cc(O)c(O)cc2C2=C(O)C(=Cc3ccc(O)cc3)OC2=O)C(O)(C(C)=O)C(O)C1=O` (single isomer, unassigned) [Kodaistatin B], in data set [1] (setting [5]), the 50% inhibitory concentration (IC50) is roughly 0.476 µM. Also, in “solubility”, the Solubility entry is “MeOH and DMSO”.

One may read the IC50 as the concentration needed to halve the response being measured.

The record behind these values is US6166070A, “Kodaistatins A, B, C and D, a process for their production and their use” (Aventis Pharma Deutschland GmbH, priority 1997, dated 2000).
